Experimental data reported in PMC5889410, “Design and Biological Evaluation of Antifouling Dihydrostilbene Oxime Hybrids” (Marine Biotechnology (New York, N.y.), 2018).
≈ marks a conversion by molar mass, not a printed value.

Assays:
Vibrio aestuarianus [1] = assay: Bacterial adhesion assay (crystal violet, OD 595 nm); type: cell-based; conditions: 48 h, read-out: MIC against the adhesion of marine bacteria, V.a.
Source text: (§1) Cyprid larvae of B. improvisus were reared in a laboratory cultivating system at Tjärnö Marine Biological Laboratory, University of Gothenburg, Sweden, as previously described by Berntsson et al. ([2000]). Four pure, but non-axenic, marine microalgae (obtained from Algobank, Caen, France) and 10 marine bacterial strains were used (Table 1) as representative microfoulers. These strains represent fouling species encountered in both estuarine and marine environments (Moodie et al. [2017b]). The bacteria were grown at 26 °C in a marine medium, composed of 0.5% peptone (neutralized bacteriological peptone, Oxoid Ltd.) in filtered (Whatman 1001–270, pore size 11 μm) natural seawater. Microalgae were grown and maintained at 22 °C in F/2 medium.
(§2) Bacterial strain adhesion and growth were determined according to the methods of Thabard et al. ([2011]). Bacterial suspensions (100-μL aliquots, 2 × 10^8 colony forming units/mL) were aseptically added to the compound containing microplate wells (10–0.01 μg/mL), and the plates were incubated for 48 h at 26 °C. Media only was used as a blank. Bacterial growth was monitored spectroscopically at 630 nm. The minimal inhibitory concentration (MIC) for bacterial growth was defined as the lowest concentration which results in a decrease in OD. After 48-h incubation time, the bacterial adhesion assay was conducted by emptying the wells and rinsing with sterile seawater (100 μL) to remove non-attached cells, and air-drying at room temperature. The residual bacterial biofilm was stained with aqueous crystal violet (100 μL, 0.3% v/v) and the OD measured at 595 nm (Sonak and Bhosle [1995]). […] If inhibition was observed, toxicity tests were conducted. The well contents were transferred into a flask of fresh media, and growth was measured after 5 days of additional incubation. The mode of action was deemed biostatic if an increase in OD was measured at 595 nm (Moodie et al. [2017a]).

marine bacteria = assay: Bacterial adhesion assay, whole panel of ten strains; type: cell-based, 10 marine bacterial strains; conditions: tested up to 10 μg/mL, active = MIC of 10 μg/mL or below
Source text: as §1, §2

Halomonas aquamarina [2] = assay: Bacterial growth assay (OD 630 nm); type: cell-based; conditions: Vreelandella aquamarina, 48 h incubation, 10–0.01 μg/mL tested, read-out: MIC against the growth of marine bacteria, H.a.
Source text: as §1, §2

[3] = tested on: Pseudoalteromonas elyakovii; assay: Bacterial growth assay (OD 630 nm); type: cell-based; conditions: 48 h incubation, 10–0.01 μg/mL tested, read-out: MIC against the growth of marine bacteria, P.e.
Source text: as §1, §2

Roseobacter litoralis [4] = assay: Bacterial growth assay (OD 630 nm); type: cell-based; conditions: 48 h incubation, 10–0.01 μg/mL tested, read-out: MIC against the growth of marine bacteria, R.l.
Source text: as §1, §2

Shewanella putrefaciens [5] = assay: Bacterial growth assay (OD 630 nm); type: cell-based; conditions: 48 h incubation, 10–0.01 μg/mL tested, read-out: MIC against the growth of marine bacteria, S.p.
Source text: as §1, §2

Vibrio aestuarianus [6] = assay: Bacterial growth assay (OD 630 nm); type: cell-based; conditions: 48 h incubation, 10–0.01 μg/mL tested, read-out: MIC against the growth of marine bacteria, V.a.
Source text: as §1, §2

Vibrio carchariae [7] = assay: Bacterial growth assay (OD 630 nm); type: cell-based; conditions: Vibrio harveyi, 48 h incubation, 10–0.01 μg/mL tested, read-out: MIC against the growth of marine bacteria, V.c.
Source text: as §1, §2

Vibrio harveyi [8] = assay: Bacterial growth assay (OD 630 nm); type: cell-based; conditions: 48 h incubation, 10–0.01 μg/mL tested, read-out: MIC against the growth of marine bacteria, V.h.
Source text: as §1, §2

Vibrio natriegens [9] = assay: Bacterial growth assay (OD 630 nm); type: cell-based; conditions: 48 h incubation, 10–0.01 μg/mL tested, read-out: MIC against the growth of marine bacteria, V.n.
Source text: as §1, §2

Vibrio proteolyticus [10] = assay: Bacterial growth assay (OD 630 nm); type: cell-based; conditions: 48 h incubation, 10–0.01 μg/mL tested, read-out: MIC against the growth of marine bacteria, V.p.
Source text: as §1, §2

Halamphora coffeaeformis [11] = assay: Microalgal adhesion assay (chlorophyll a); type: cell-based; conditions: Halamphora coffeiformis, 120 h, 5 days incubation, 10–0.01 μg/mL tested, read-out: MIC against the adhesion (A) of microalgae, H. coffeaformis
Source text: as §1
(§3) Microplates containing the compounds in ranging concentrations (10–0.01 μg/mL) were prepared from MeOH stock solutions as previously described (Trepos et al. [2014]; Moodie et al. [2017a]). Microalgal stock solutions were prepared using the chlorophyll analysis methodology of Chambers et al. ([2011]). The pretreated microplate wells were treated with 100 μL of the algal stock solutions (0.1 mg chlorophyll a/mL). The plates were then incubated for 5 days at 20 °C under constant light exposure (140 μmol m^−2 s^−1). Both microalgal adhesion and growth inhibition were measured. Growth was determined by analysis of liberated chlorophyll a after centrifugation and methanol addition. Chlorophyll a was quantified fluorometrically. MIC value for algal growth was defined as the lowest concentration yielding a decrease in chlorophyll a content. Microalgal adhesion was determined in an analogous manner where the non-attached algal cells were removed prior to methanol addition (100 μL), releasing chlorophyll a from the remaining algal biofilms. The MIC for adhesion was defined as the lowest compound concentration causing a reduction in […]. Toxicity experiments were performed in an analogous manner to those described for the bacterial assays.

[12] = tested on: Pleurochrysis roscoffensis; assay: Microalgal adhesion assay (chlorophyll a); type: cell-based; conditions: Chrysotila roscoffensis, 120 h, 5 days incubation, 10–0.01 μg/mL tested, read-out: MIC against the adhesion (A) of microalgae, P. roscoffensis
Source text: as §1, §3

Porphyridium purpureum [13] = assay: Microalgal adhesion assay (chlorophyll a); type: cell-based; conditions: 120 h, 5 days incubation, 10–0.01 μg/mL tested, read-out: MIC against the adhesion (A) of microalgae, P. purpureum
Source text: as §1, §3

Cylindrotheca closterium [14] = assay: Microalgal growth assay (chlorophyll a); type: cell-based; conditions: 120 h, 5 days incubation, 10–0.01 μg/mL tested, read-out: MIC against the growth (G) of microalgae, C. closterium
Source text: as §1, §3

Halamphora coffeaeformis [15] = assay: Microalgal growth assay (chlorophyll a); type: cell-based; conditions: Halamphora coffeiformis, 120 h, 5 days incubation, 10–0.01 μg/mL tested, read-out: MIC against the growth (G) of microalgae, H. coffeaformis
Source text: as §1, §3

[16] = tested on: Pleurochrysis roscoffensis; assay: Microalgal growth assay (chlorophyll a); type: cell-based; conditions: Chrysotila roscoffensis, 120 h, 5 days incubation, 10–0.01 μg/mL tested, read-out: MIC against the growth (G) of microalgae, P. roscoffensis
Source text: as §1, §3

Porphyridium purpureum [17] = assay: Microalgal growth assay (chlorophyll a); type: cell-based; conditions: 120 h, 5 days incubation, 10–0.01 μg/mL tested, read-out: MIC against the growth (G) of microalgae, P. purpureum
Source text: as §1, §3

[18] = tested on: Balanus improvisus cyprid larvae; assay: whole plant or invertebrate; type: in vivo; conditions: for IC50: Amphibalanus improvisus, 120 h, read-out: IC50 (cyprid settlement inhibition)
Source text: as §1
Stock solutions of compounds in DMSO were serially diluted in untreated polystyrene Petri dishes containing 10 mL of filtered (0.2 μm) seawater, affording final concentrations ranging from 0.1 to 10 μg/mL. Freshly molted balanide cyprids (18–22) were added to each Petri dish and incubated at ambient temperature (20–25 °C) for 5 days. Cyprid metamorphosis was assessed using a dissecting microscope where the numbers of juvenile settled, free-swimming, and dead cyprids were noted. Initial compound screening was conducted at 5 μg/mL, and full IC50 determination was performed only on compounds displaying > 50% inhibition at that concentration. The IC50 was defined as the concentration preventing 50% of the cyprid settlement on the Petri dish surface. Each concentration was replicated four times (n = 4), and dishes containing 0.1% of DMSO were used as negative controls. The commercial AF agent Sea-nine™ was employed as a positive control.

microalgae = assay: Microalgal adhesion and growth, whole panel of four species; type: cell-based, four marine microalgae; conditions: 10–0.01 μg/mL tested
Source text: as §1, §3

Vibrio aestuarianus [19] = conditions: ref Trepos et al. ([2015]); cited from earlier work
Vibrio carchariae [20] = conditions: ref Trepos et al. ([2015]); cited from earlier work
Vibrio harveyi [21] = conditions: ref Trepos et al. ([2015]); cited from earlier work
Vibrio proteolyticus [22] = conditions: ref Trepos et al. ([2015]); cited from earlier work
Halomonas aquamarina [23] = conditions: ref Trepos et al. ([2015]); cited from earlier work
Vibrio aestuarianus [24] = conditions: ref Trepos et al. ([2015]); cited from earlier work; remark: listed apart in the source
Vibrio carchariae [25] = conditions: ref Trepos et al. ([2015]); cited from earlier work; remark: listed apart in the source
Vibrio harveyi [26] = conditions: ref Trepos et al. ([2015]); cited from earlier work; remark: listed apart in the source
Vibrio natriegens [27] = conditions: ref Trepos et al. ([2015]); cited from earlier work
Vibrio proteolyticus [28] = conditions: ref Trepos et al. ([2015]); cited from earlier work; remark: listed apart in the source
Halomonas aquamarina [29] = conditions: ref Trepos et al. ([2015]); cited from earlier work; remark: listed apart in the source
Roseobacter litoralis [30] = conditions: ref Trepos et al. ([2015]); cited from earlier work
Shewanella putrefaciens [31] = conditions: ref Trepos et al. ([2015]); cited from earlier work
[32] = tested on: Pseudoalteromonas elyakovii; conditions: ref Trepos et al. ([2015]); cited from earlier work
Halamphora coffeaeformis [33] = conditions: ref Trepos et al. ([2015]); cited from earlier work
Halamphora coffeaeformis [34] = conditions: ref Trepos et al. ([2015]); cited from earlier work; remark: listed apart in the source
[35] = tested on: Pleurochrysis roscoffensis; conditions: ref Trepos et al. ([2015]); cited from earlier work
[36] = tested on: Pleurochrysis roscoffensis; conditions: ref Trepos et al. ([2015]); cited from earlier work; remark: listed apart in the source
Cylindrotheca closterium [37] = conditions: ref Trepos et al. ([2015]); cited from earlier work
Cylindrotheca closterium [38] = conditions: ref Trepos et al. ([2015]); cited from earlier work; remark: listed apart in the source
Porphyridium purpureum [39] = conditions: ref Trepos et al. ([2015]); cited from earlier work
Porphyridium purpureum [40] = conditions: ref Trepos et al. ([2015]); cited from earlier work; remark: listed apart in the source

Structure (SMILES): COc1cc(C(Cc2cccc(O)c2)=NO)ccc1O [Compound 13, 1-(3-methoxy-4-hydroxyphenyl)-1-hydroxyimino-2-(3’-hydroxyphenyl)-ethane]
- MIC (Vibrio aestuarianus [1]): 0.1 mg/L (≈ 0.366 µM)
- MIC / activity against the adhesion of all bacteria tested (marine bacteria): displayed inhibitory activities
- MIC (Halomonas aquamarina [2]): > 10 mg/L
- MIC [3]: > 10 mg/L
- MIC (Roseobacter litoralis [4]): > 10 mg/L
- MIC (Shewanella putrefaciens [5]): > 10 mg/L
- MIC (Vibrio aestuarianus [6]): > 10 mg/L
- MIC (Vibrio carchariae [7]): > 10 mg/L
- MIC (Vibrio harveyi [8]): > 10 mg/L
- MIC (Vibrio natriegens [9]): 1 mg/L (≈ 3.66 µM)
- MIC (Vibrio proteolyticus [10]): > 10 mg/L
- MIC (Halamphora coffeaeformis [11]): 0.01 mg/L (≈ 0.0366 µM)
- MIC [12]: 1 mg/L (≈ 3.66 µM)
- MIC (Porphyridium purpureum [13]): 10 mg/L (≈ 36.6 µM)
- MIC (Cylindrotheca closterium [14]): 1 mg/L (≈ 3.66 µM)
- MIC (Halamphora coffeaeformis [15]): 0.1 mg/L (≈ 0.366 µM)
- MIC [16]: 0.1 mg/L (≈ 0.366 µM)
- MIC (Porphyridium purpureum [17]): 1 mg/L (≈ 3.66 µM)
- IC50 [18]: 5 mg/L (≈ 18.3 µM)
- Toxicity (%) (dead cyprids) ([18]; Balanus improvisus, in vivo, 5 days, 5 μg/mL): 1.6%
- MIC / activity against the attachment and growth of microalgae (microalgae): inhibited both the settlement and growth of all of the tested species

Structure (SMILES): CCCCCCCCn1sc(Cl)c(Cl)c1=O [Sea-nine™]
- IC50 [18]: 0.25 mg/L (≈ 0.886 µM)
- MIC against the adhesion of marine bacteria, V.a. (Vibrio aestuarianus [19]): 1 mg/L
- MIC against the adhesion of marine bacteria, V.c. (Vibrio carchariae [20]): < 0.01 mg/L
- MIC against the adhesion of marine bacteria, V.h. (Vibrio harveyi [21]): 1 mg/L
- MIC against the adhesion of marine bacteria, V.p. (Vibrio proteolyticus [22]): 0.01 mg/L
- MIC against the adhesion of marine bacteria, H.a. (Halomonas aquamarina [23]): < 0.01 mg/L
- MIC against the growth of marine bacteria, V.a. (Vibrio aestuarianus [24]): < 0.01 mg/L
- MIC against the growth of marine bacteria, V.c. (Vibrio carchariae [25]): < 0.01 mg/L
- MIC against the growth of marine bacteria, V.h. (Vibrio harveyi [26]): 1 mg/L
- MIC against the growth of marine bacteria, V.n. (Vibrio natriegens [27]): 1 mg/L
- MIC against the growth of marine bacteria, V.p. (Vibrio proteolyticus [28]): 0.01 mg/L
- MIC against the growth of marine bacteria, H.a. (Halomonas aquamarina [29]): 0.1 mg/L
- MIC against the growth of marine bacteria, R.l. (Roseobacter litoralis [30]): 1 mg/L
- MIC against the growth of marine bacteria, S.p. (Shewanella putrefaciens [31]): 1 mg/L
- MIC against the growth of marine bacteria, P.e. [32]: 0.1 mg/L
- MIC against the adhesion (A) of microalgae, H. coffeaformis (Halamphora coffeaeformis [33]): < 0.01 mg/L
- MIC against the growth (G) of microalgae, H. coffeaformis (Halamphora coffeaeformis [34]): < 0.01 mg/L
- MIC against the adhesion (A) of microalgae, P. roscoffensis [35]: < 0.01 mg/L
- MIC against the growth (G) of microalgae, P. roscoffensis [36]: < 0.01 mg/L
- MIC against the adhesion (A) of microalgae, C. closterium (Cylindrotheca closterium [37]): < 0.01 mg/L
- MIC against the growth (G) of microalgae, C. closterium (Cylindrotheca closterium [38]): < 0.01 mg/L
- MIC against the adhesion (A) of microalgae, P. purpureum (Porphyridium purpureum [39]): < 0.01 mg/L
- MIC against the growth (G) of microalgae, P. purpureum (Porphyridium purpureum [40]): < 0.01 mg/L
